Data from US8410170B2, “Use of isothiocyanates compounds in treating prostatic diseases and skin cancer” (Wuxi JC Pharmaceutical Technology Co., Ltd., priority 2005, dated 2013).
Where a name gives a salt, the structure may show the parent alone.

Key:
[1] = tested on: non-bacterial prostatitis; assay: Therapeutic effects on non-bacterial prostatitis (Xiaozhiling injection into prostate); type: in vivo, SD rats; parameters: Histopathological score of prostatitis, Overall Average X ± SD: scale not given here
Method: Fifty-five male SD rats were randomly divided into 6 groups, 9 each, except the negative control group for which 10 animals were used. All animals from group 1 to 6 were anesthetized by injection of ketamine under sterile conditions and incised around 1.5 cm with a sterilized surgery scalpel at middle of abdomen. Animals in Group 1 were injected penicillin to prevent infection, and given distill water, 10 ml/kg, once a day, 5 times a week for 5 weeks. Groups from 2 to 6 injected 25% Xiaozhiling into left and right lobes of prostate, 0.1 ml for each lobe and sew the muscle and skin with #1 silk thread. The animals were then given penicillin to prevent infectious. Group 2 was served as negative control group in which animals were treated with distill water by gavage 24 hrs after the Xiaozhiling injection, once a day, 5 times a week for 5 weeks. Group 3 was served as positive control group in which animals were treated with GENURIN by gavage 24 hrs after the Xiaozhiling injection at dose of 60 mg/kg, once a day, 5 times a week (escaping weekend) for 5 weeks. […] On the last dosing day, urine samples from different groups that covered periods of 1, 2 and 3 hrs were collected.
Twenty-four hrs after the last dose, the animals were euthanized and weighed. Volume and weight of prostate were measured. The averages of the prostate weight/volume and organ coefficient (average weight of prostate/average of body weight) were calculated, and statistical analysis performed (t test).
(§1) Prostate tissues of animals from different groups were embedded with paraffin. The tissue sections were stained with H&E for histpathological examination by an anatomical pathologist.

androgen-induced BPH = assay: Therapeutic effects on BPH: Test Two (castrated rats, testosterone propionate; weights and histopathology); type: in vivo, SD rats; parameters: Histopathological score of BPH, Average X ± SD: scale not given here
Method: Thirty-six male SD rats were randomly divided into 4 groups, nine each. Group 1 was served as blank control group (pseudo-surgery control group) in which animals were under the same surgical procedures except no testis was sectioned and fed normally. Groups from 2 to 4 were served as treatment groups in which all animals were anesthetized using ketamine and castrated by removing both testises under sterile conditions. After the surgery, the penicillin was injected to prevent the animals from infection. One week later, the testosterone propionate was injected subcutaneously at dose of 5 mg/kg, once a day for a month. […] Group 3 was served as positive control group in which animals were given Proscar by gavage at dose of 0.1 mg/rat/day for a month beginning on the same day that the testosterone propionate was injected.
Twenty-four hrs after the last dose, the animals were euthanized and weighed. Volume and weight of prostate were measured. The averages of prostate volume/weight and organ coefficient (average weight of prostate/average of body weight) were calculated, and statistical analysis performed (t test).
as §1

[2] = tested on: xenograft B16 mouse tumor; conditions: CTX 20 mg/kg/d i.p., 15 days
Method: The B16 mouse melanoma cells at exponential growth phase were suspended in PBS. […] Adjusted the suspension to a cell concentration of approximately 1×10^7/ml. 0.2 ml of the suspension were transplanted subcutaneously into right axillary subcutis for passaging.
Under sterile condition the xenograft B16 mouse tumor in mice was stripped from axillary subcutis. After cutting by scissors, the tumor with saline (1:3) was ground in a glass homogenizer. Monocell suspension was made with saline. […] Then adjusted the suspension to a cell density of approximately 1×10^7/ml with saline. 0.2 ml were transplanted subcutaneously into right axillary subcutis of each mouse. After transplanting, randomly divided the mouse into 5 groups, 12 each.
Tumors were taken out, sizes and weights were measured, and the percent of inhibitions were calculated.

GSTP1 = assay: Western blot to detect GSTP1 protein in LNCaP cells; type: cell-based, human; conditions: LNCaP cells exposed 24 hrs
Method: Western blot to detect GSTP1 protein (FIG. 1): […] The cells were harvested, washed and total cellular proteins were extracted as described previously (Wang, […], et al. […] Cancer Res 61(20): 7544-51, 2001). Fifty μg cellular extracts were separated on a SDS-PAGE, electro-transferred to nitrocellulose filters, and immunoblotted initially with antibodies against GSTP1. The same membranes were stripped and re-probed with β-actin for loading control. The result was recorded by ECL films.

[3] = tested on: human androgen independent prostate cancer PC-3 cells; assay: Xenograft of PC-3 in nude mice; type: in vivo, BALB/c nude mice; conditions: for Inhibition of PC-3 tumor growth: at terminal, diet containing 8 μM/g for 30 days
Source text: Immunodeficient BALB/c nude mice, male, 5 weeks old, were purchased from Animal Center, Chinese Academy of Sciences, Shanghai, China. The animals were housed in an SPF animal lab. Human androgen independent prostate cancer PC-3 cells, in the form of a pellet (approximately 1×10^6 cells per animal), were mixed with a 50% volume of Matrigel and implanted s.c. in the flank of the animal. Twenty-four hrs after the transplant, the mice were randomly divided into two groups, eight animal each. One group served as untreated control and fed with regular AIN76 diet, and another one as treatment group in which AIN76 diet containing 8 μM/g of PEITC-NAC was provided. The animals were treated for 30 days, and tumor incidence and size were measured at day 7, 10, 22. Twenty-four hrs after the last administration, animals were euthanized, and body and tumors were weighted. Western blot was used to follow the possible change of AR expression.

BPH = assay: Therapeutic effects on BPH: Test One (castrated rats, testosterone propionate); type: in vivo, SD rats; conditions: estradiol 0.1 mg/rat s.c., one month
Method: Sixty male SD rats were randomly divided into 6 groups, ten each. The animals were anesthetized using ketamine and castrated by removing testis under sterile conditions. After the surgery, the penicillin was injected to prevent the animals from infection. One week later, the testosterone propionate was injected subcutaneously at dose of 1 mg/rat for a month, once a day. Group 1 was served as a negative control group, and the animals of group 1 were given saline orally without any active pharmaceutical ingredient for a month beginning on the same day the testosterone propionate was injected. Group 2 was served as positive control group in which animals were given estradiol subcutaneously at a dose of 0.1 mg/rat for a month beginning on the same day the testosterone propionate was injected. Groups from 3 to 6 was served as drug treatment groups in which animals were given tested articles on the same day the testosterone propionate was injected.
Twenty-four hrs after the last dosage, the animals were euthanized and weighed. Volume and weight of prostate were measured. The averages of volume/weight and organ coefficient (average weight of prostate/average of body weight) were calculated, and statistical analysis performed (t test).

[4] = GENURIN 60 mg/kg gavage, 5 weeks
[5] = GENURIN 60 mg/kg, last dosing day
[6] = Proscar 0.5 mg/kg gavage, one month

Cc1c(-c2ccccc2)oc2c(C(=O)OCCN3CCCCC3)cccc2c1=O [GENURIN, Flavoxate Hydrochloride, reference compound]
Average Volume of Prostate [1, 4]: 0.69 ± 0.10 cm^3 | Average Weight of Prostate [1, 4]: 0.71 ± 0.09 g | Inhibition of Organ-coefficient [1, 4]: 24.62% | Organ Coefficient [1, 4]: 0.196 ± 0.03 % | Bleeding: no. of animals with score 0 ([1]; GENURIN 60 mg/kg, 9 animals): 6 | Bleeding: no. of animals with score + ([1]; GENURIN 60 mg/kg, 9 animals): 3 | Bleeding: no. of animals with score ++ ([1]; GENURIN 60 mg/kg, 9 animals): 0 | Bleeding: no. of animals with score +++ ([1]; GENURIN 60 mg/kg, 9 animals): 0 | Chronic Inflammatory Infiltration: no. of animals with score 0 ([1]; GENURIN 60 mg/kg, 9 animals): 5 | Chronic Inflammatory Infiltration: no. of animals with score + ([1]; GENURIN 60 mg/kg, 9 animals): 4 | Chronic Inflammatory Infiltration: no. of animals with score ++ ([1]; GENURIN 60 mg/kg, 9 animals): 0 | Chronic Inflammatory Infiltration: no. of animals with score +++ ([1]; GENURIN 60 mg/kg, 9 animals): 0 | Congestion: no. of animals with score 0 ([1]; GENURIN 60 mg/kg, 9 animals): 4 | Congestion: no. of animals with score + ([1]; GENURIN 60 mg/kg, 9 animals): 5 | Congestion: no. of animals with score ++ ([1]; GENURIN 60 mg/kg, 9 animals): 0 | Congestion: no. of animals with score +++ ([1]; GENURIN 60 mg/kg, 9 animals): 0 | Edema: no. of animals with score 0 ([1]; GENURIN 60 mg/kg, 9 animals): 6 | Edema: no. of animals with score + ([1]; GENURIN 60 mg/kg, 9 animals): 2 | Edema: no. of animals with score ++ ([1]; GENURIN 60 mg/kg, 9 animals): 1 | Edema: no. of animals with score +++ ([1]; GENURIN 60 mg/kg, 9 animals): 0 | Fibrous Exudation: no. of animals with score 0 ([1]; GENURIN 60 mg/kg, 9 animals): 8 | Fibrous Exudation: no. of animals with score + ([1]; GENURIN 60 mg/kg, 9 animals): 1 | Fibrous Exudation: no. of animals with score ++ ([1]; GENURIN 60 mg/kg, 9 animals): 0 | Fibrous Exudation: no. of animals with score +++ ([1]; GENURIN 60 mg/kg, 9 animals): 0 | Histopathological score of prostatitis, Overall Average X ± SD ([1]; GENURIN 60 mg/kg, 9 animals): 1.83 ± 0.75 | Hyperblastosis: no. of animals with score 0 ([1]; GENURIN 60 mg/kg, 9 animals): 8 | Hyperblastosis: no. of animals with score + ([1]; GENURIN 60 mg/kg, 9 animals): 1 | Hyperblastosis: no. of animals with score ++ ([1]; GENURIN 60 mg/kg, 9 animals): 0 | Hyperblastosis: no. of animals with score +++ ([1]; GENURIN 60 mg/kg, 9 animals): 0 | Inflammatory Infiltration: no. of animals with score 0 ([1]; GENURIN 60 mg/kg, 9 animals): 7 | Inflammatory Infiltration: no. of animals with score + ([1]; GENURIN 60 mg/kg, 9 animals): 2 | Inflammatory Infiltration: no. of animals with score ++ ([1]; GENURIN 60 mg/kg, 9 animals): 0 | Inflammatory Infiltration: no. of animals with score +++ ([1]; GENURIN 60 mg/kg, 9 animals): 0 | urine, 1 h Period [1, 5]: 6.2 ± 1.3 mL | urine, 2 h Period [1, 5]: 7.9 ± 1.9 mL | urine, 3 h Period [1, 5]: 8.8 ± 1.2 mL

CC(C)(C)NC(=O)[C@H]1CC[C@H]2[C@@H]3CC[C@H]4NC(=O)C=C[C@]4(C)[C@H]3CC[C@]12C [Proscar]
Average Body Weight (androgen-induced BPH; Proscar 0.5 mg/kg (0.1 mg/rat/day) gavage, one month): 340 ± 30.5 g | Average Volume of Prostate (androgen-induced BPH; [6]): 1.61 ± 0.16 cm^3 | Average Weight of Prostate (androgen-induced BPH; [6]): 1.30 ± 0.12 g | Inhibition of Organ Coefficient (androgen-induced BPH; [6]): 11.63% | Organ Coefficient (androgen-induced BPH; [6]): 0.38 ± 0.05% | Acinar Density: no. of animals with score 0 (androgen-induced BPH; Proscar, 9 animals): 1 | Acinar Density: no. of animals with score + (androgen-induced BPH; Proscar, 9 animals): 2 | Acinar Density: no. of animals with score ++ (androgen-induced BPH; Proscar, 9 animals): 6 | Acinar Density: no. of animals with score +++ (androgen-induced BPH; Proscar, 9 animals): 0 | Connective tissue proliferation, or papillary hyperplasia: no. of animals with score 0 (androgen-induced BPH; Proscar, 9 animals): 8 | Connective tissue proliferation, or papillary hyperplasia: no. of animals with score + (androgen-induced BPH; Proscar, 9 animals): 1 | Connective tissue proliferation, or papillary hyperplasia: no. of animals with score ++ (androgen-induced BPH; Proscar, 9 animals): 0 | Connective tissue proliferation, or papillary hyperplasia: no. of animals with score +++ (androgen-induced BPH; Proscar, 9 animals): 0 | Enlargement of Lumen of Gland: no. of animals with score 0 (androgen-induced BPH; Proscar, 9 animals): 3 | Enlargement of Lumen of Gland: no. of animals with score + (androgen-induced BPH; Proscar, 9 animals): 3 | Enlargement of Lumen of Gland: no. of animals with score ++ (androgen-induced BPH; Proscar, 9 animals): 3 | Enlargement of Lumen of Gland: no. of animals with score +++ (androgen-induced BPH; Proscar, 9 animals): 0 | Histopathological score of BPH, Average X ± SD (androgen-induced BPH; Proscar, 9 animals): 3.33 ± 1.11 | Secretions of Gland: no. of animals with score 0 (androgen-induced BPH; Proscar, 9 animals): 5 | Secretions of Gland: no. of animals with score + (androgen-induced BPH; Proscar, 9 animals): 2 | Secretions of Gland: no. of animals with score ++ (androgen-induced BPH; Proscar, 9 animals): 2 | Secretions of Gland: no. of animals with score +++ (androgen-induced BPH; Proscar, 9 animals): 0 | lumen of prostatic gland and secretary materials in the lumen, versus untreated BPH tissues (typical slide) (androgen-induced BPH; Proscar, FIG. 6.3): reduced | density of prostatic acinars, versus untreated BPH tissues (typical slide) (androgen-induced BPH; Proscar, FIG. 6.4): reduced

O=P1(N(CCCl)CCCl)NCCCO1 (centres unmarked) [CTX, Cyclophosphamide, reference compound]
Average of Tumor Weight [2]: 0.76 ± 0.41 g | Changes in Body Weight [2]: 5.07 ± 2.64 g | Inhibition [2]: 66.23%

CC(=O)NC(CSC(=S)NCCc1ccccc1)C(=O)O (centres unmarked) [PEITC-NAC, N-acetylcysteine conjugate of phenethyl isothiocyanate]
expression of GSTP1 (Western blot) (GSTP1): effectively induce | Incidence ([3]; at terminal (30 days)): 87.5% | No. of Animals with Tumor ([3]; at terminal (30 days)): 7 | No. of Animals without Tumor ([3]; at terminal (30 days)): 1 | Inhibition of PC-3 tumor growth [3]: 53.3% | Incidence ([3]; day 7): 75% | No. of Animals without Tumor ([3]; day 7): 2 | No. of Animals with Tumor ([3]; day 7 after tumor implantation, diet containing 8 μM/g, 8 animals): 6 | Incidence ([3]; day 10): 75% | No. of Animals with Tumor ([3]; day 10): 6 | No. of Animals without Tumor ([3]; day 10): 2 | Incidence ([3]; day 22): 87.5% | No. of Animals with Tumor ([3]; day 22): 7 | No. of Animals without Tumor ([3]; day 22): 1

C[C@]12CC[C@@H]3c4ccc(O)cc4CC[C@H]3[C@@H]1CC[C@@H]2O [estradiol, reference compound]
Average Weight of Prostate (BPH): 0.73 grams | Organ Coefficient (BPH): 0.23%

N-acetylcysteine conjugate of phenethyl isothiocyanate [PEITC-NAC]
Inhibition of PC-3 tumor growth [3]: 53.3%
